One data set relates to C. albicans. The data set can be described thus: Minimum Inhibitory Concentrations (MICs) against C. albicans, NCCLS M27-A broth dilution. Type of data set: cell-based. The conditions noted are these: Candida albicans, read-out: MIC. The method, then: For each compound synthesized, Minimum Inhibitory Concentrations (MICs) against C. albicans were determined as described in Reference Method for Broth Dilution Antifungal Susceptibility Testing of Yeasts, Approved Standard, NCCLS document M27-A (ISBN 1-56238-328-0), NCCLS, 940 West Valley Road, Suite 1400, Wayne, Pa. 19087, 1997.

Data set [1] is described as follows: Maximum non-lethal dose (NLD), single intravenous dose in mice. Conditions: test compounds as aspartate salts in 5% mannitol, AmB as FUNGIZONE
Type of data set: in vivo, Swiss-Webster male mice. The method, then:
A variety of the compounds synthesized as described in Section 5, supra, were tested in various in vivo assays, as described below. The results of the various assays are provided in TABLE 3, presented at the end of this section. In all of the in vivo assays described, the test compounds, in the form of the aspartate salts, were formulated in an aqueous vehicle (5% mannitol in sterile water; OSMITROL, Baxter Healthcare, Deerfield, Ill.), followed by appropriate dilutions. The formulations were prepared fresh before dosing.
AmB and AME were also tested for comparison. For AmB, the commercially available FUNGIZONE (Bristol-Meyers Squibb Co.) was used. Reported values are based upon the weight of the AmB active ingredient, not on the basis of the weight of the FUNGIZONE powder. AME was formulated in OSMITROL as described for the test compounds.
Maximum non-lethal dose (NLD) data were obtained for selected compounds. A single intravenous dose was administered to each of four mice (Swiss-Webster male mice; Simonsen Laboratories, Gilroy, Calif.) in several groups. The doses selected were based upon the NLDs of compounds of similar structures. After review of findings, higher or lower doses were administered and a NLD was determined. The results are tabulated in TABLE 3, below (NLD Acute Mice). The values for AmB and AME are provided for comparison

In brackets after ≈: the same amount, converted by molar mass.

`CC1[C@H](C)OC(=O)C[C@H](O)C[C@H](O)CC[C@@H](O)[C@H](O)C[C@H](O)C[C@]2(O)C[C@H](O)C(C(=O)NN3CCN(C)CC3)C(C[C@@H](OC3O[C@H](C)[C@@H](O)[C@H](NC[C@@]4(O)OC[C@@H](O)[C@@H](O)[C@@H]4O)[C@@H]3O)/C=C/C=C/C=C/C=C/C=C/C=C/C=C/[C@H](C)[C@H]1O)O2` (some centres unmarked) [Compound 100]: in the data set with C. albicans, the MIC – broadly, the lowest concentration found to suppress growth – amounted to 2 µg/mL (≈ 1.69 µM).
The same measure, in the same setting: to `CC1[C@H](C)OC(=O)C[C@H](O)C[C@H](O)CC[C@@H](O)[C@H](O)C[C@H](O)C[C@]2(O)C[C@H](O)C(C(=O)NCCc3ccccn3)C(C[C@@H](OC3O[C@H](C)[C@@H](O)[C@H](NC[C@@]4(O)OC[C@@H](O)[C@@H](O)[C@@H]4O)[C@@H]3O)/C=C/C=C/C=C/C=C/C=C/C=C/C=C/[C@H](C)[C@H]1O)O2` (some centres unmarked) [Compound 101] belongs 4 µg/mL (≈ 3.36 µM); to `Cc1cc(NC(=O)C2C3C[C@@H](OC4O[C@H](C)[C@@H](O)[C@H](NC[C@@]5(O)OC[C@@H](O)[C@@H](O)[C@@H]5O)[C@@H]4O)/C=C/C=C/C=C/C=C/C=C/C=C/C=C/[C@H](C)[C@@H](O)C(C)[C@H](C)OC(=O)C[C@H](O)C[C@H](O)CC[C@@H](O)[C@H](O)C[C@H](O)C[C@](O)(C[C@@H]2O)O3)no1` (some centres unmarked) [Compound 102], 2.7 µg/mL (≈ 2.31 µM); to `CC1[C@H](C)OC(=O)C[C@H](O)C[C@H](O)CC[C@@H](O)[C@H](O)C[C@H](O)C[C@]2(O)C[C@H](O)C(C(=O)NCC(O)CO)C(C[C@@H](OC3O[C@H](C)[C@@H](O)[C@H](NC[C@@]4(O)OC[C@@H](O)[C@@H](O)[C@@H]4O)[C@@H]3O)/C=C/C=C/C=C/C=C/C=C/C=C/C=C/[C@H](C)[C@H]1O)O2` (some centres unmarked) [Compound 105], 2 µg/mL (≈ 1.73 µM).
On to `CC1[C@H](C)OC(=O)C[C@H](O)C[C@H](O)CC[C@@H](O)[C@H](O)C[C@H](O)C[C@]2(O)C[C@H](O)C(C(=O)NN3CCN(C)CC3)C(C[C@@H](OC3O[C@H](C)[C@@H](O)[C@H](NC[C@@]4(O)OC[C@@H](O)[C@H](O)[C@@H]4O)[C@@H]3O)/C=C/C=C/C=C/C=C/C=C/C=C/C=C/[C@H](C)[C@H]1O)O2` (some centres unmarked) [Compound 108], for which the MIC with C. albicans was 4 µg/mL (≈ 3.38 µM).
Same read-out and setting: for `CC1[C@H](C)OC(=O)C[C@H](O)C[C@H](O)CC[C@@H](O)[C@H](O)C[C@H](O)C[C@]2(O)C[C@H](O)C(C(=O)NCCc3ccccn3)C(C[C@@H](OC3O[C@H](C)[C@@H](O)[C@H](NC[C@@]4(O)OC[C@@H](O)[C@H](O)[C@@H]4O)[C@@H]3O)/C=C/C=C/C=C/C=C/C=C/C=C/C=C/[C@H](C)[C@H]1O)O2` (some centres unmarked) [Compound 109] the value was 2 µg/mL (≈ 1.68 µM).
Consider `CC1[C@H](C)OC(=O)C[C@H](O)C[C@H](O)CC[C@@H](O)[C@H](O)C[C@H](O)C[C@]2(O)C[C@H](O)C(C(=O)NCCc3ccccn3)C(C[C@@H](OC3O[C@H](C)[C@@H](O)[C@H](NC[C@@]4(O)OC[C@@H](O)[C@@H](OC5O[C@H](CO)[C@@H](O)[C@H](O)[C@H]5O)[C@@H]4O)[C@@H]3O)/C=C/C=C/C=C/C=C/C=C/C=C/C=C/[C@H](C)[C@H]1O)O2` (some centres unmarked) [Compound 116], for which, in the data set with C. albicans, the MIC came out at 8 µg/mL (≈ 5.91 µM).
In the case of `CC1[C@H](C)OC(=O)C[C@H](O)C[C@H](O)CC[C@@H](O)[C@H](O)C[C@H](O)C[C@]2(O)C[C@H](O)C(C(=O)NCC(O)C(O)C(O)C(O)CO)C(C[C@@H](OC3O[C@H](C)[C@@H](O)[C@H](NC[C@@]4(O)OC[C@@H](O)[C@@H](OC5O[C@H](CO)[C@@H](O)[C@H](O)[C@H]5O)[C@@H]4O)[C@@H]3O)/C=C/C=C/C=C/C=C/C=C/C=C/C=C/[C@H](C)[C@H]1O)O2` (some centres unmarked) [Compound 117], the MIC in the data set with C. albicans stood at 8 µg/mL (≈ 5.67 µM).
As for `CC1[C@H](C)OC(=O)C[C@H](O)C[C@H](O)CC[C@@H](O)[C@H](O)C[C@H](O)C[C@]2(O)C[C@H](O)C(C(=O)NCC(O)CO)C(C[C@@H](OC3O[C@H](C)[C@@H](O)[C@H](NC[C@@]4(O)OC[C@@H](O)[C@@H](OC5O[C@H](CO)[C@@H](O)[C@H](O)[C@H]5O)[C@@H]4O)[C@@H]3O)/C=C/C=C/C=C/C=C/C=C/C=C/C=C/[C@H](C)[C@H]1O)O2` (some centres unmarked) [Compound 119], in the data set with C. albicans, the MIC amounted to 8 µg/mL (≈ 6.05 µM).
For the molecule `CC1[C@H](C)OC(=O)C[C@H](O)C[C@H](O)CC[C@@H](O)[C@H](O)C[C@H](O)C[C@]2(O)C[C@H](O)C(C(=O)NCCN3CCCCC3)C(C[C@@H](OC3O[C@H](C)[C@@H](O)[C@H](NC[C@@]4(O)OC[C@@H](O)[C@@H](OC5O[C@H](CO)[C@@H](O)[C@H](O)[C@H]5O)[C@@H]4O)[C@@H]3O)/C=C/C=C/C=C/C=C/C=C/C=C/C=C/[C@H](C)[C@H]1O)O2` (some centres unmarked) [Compound 120], the minimal inhibitory concentration (MIC) with C. albicans stood at 8 µg/mL (≈ 5.89 µM).
For the molecule `CC1[C@H](C)OC(=O)C[C@H](O)C[C@H](O)CC[C@@H](O)[C@H](O)C[C@H](O)C[C@]2(O)C[C@H](O)C(C(=O)NCCc3cccs3)C(C[C@@H](OC3O[C@H](C)[C@@H](O)[C@H](NC[C@@]4(O)OC[C@@H](O)[C@@H](OC5O[C@H](CO)[C@@H](O)[C@H](O)[C@H]5O)[C@@H]4O)[C@@H]3O)/C=C/C=C/C=C/C=C/C=C/C=C/C=C/[C@H](C)[C@H]1O)O2` (some centres unmarked) [Compound 121], the MIC in the data set on C. albicans was found to be 8 µg/mL (≈ 5.89 µM).
Consider `CC1[C@H](C)OC(=O)C[C@H](O)C[C@H](O)CC[C@@H](O)[C@H](O)C[C@H](O)C[C@]2(O)C[C@H](O)C(C(=O)N[C@H]3C(O)O[C@H](CO)[C@@H](O)[C@@H]3O)C(C[C@@H](OC3O[C@H](C)[C@@H](O)[C@H](N)[C@@H]3O)/C=C/C=C/C=C/C=C/C=C/C=C/C=C/[C@H](C)[C@H]1O)O2` (some centres unmarked) [Compound 123], for which the NLD acute mice in data set [1] is reported as 32 mg/kg. Also, the MIC in the data set on C. albicans worked out at 5.3 µg/mL (≈ 4.88 µM).
In the same order, the values of `CC1[C@H](C)OC(=O)C[C@H](O)C[C@H](O)CC[C@@H](O)[C@H](O)C[C@H](O)C[C@]2(O)C[C@H](O)C(C(=O)N[C@H]3C(O)O[C@H](CO)[C@H](O)[C@@H]3O)C(C[C@@H](OC3O[C@H](C)[C@@H](O)[C@H](N)[C@@H]3O)/C=C/C=C/C=C/C=C/C=C/C=C/C=C/[C@H](C)[C@H]1O)O2` (some centres unmarked) [Compound 124] are 16 mg/kg and 1 µg/mL (≈ 0.921 µM).
In the same order, the values of `CC1[C@H](C)OC(=O)C[C@H](O)C[C@H](O)CC[C@@H](O)[C@H](O)C[C@H](O)C[C@]2(O)C[C@H](O)C(C(=O)N[C@@H]3C(O)O[C@H](CO)[C@@H](O)[C@@H]3O)C(C[C@@H](OC3O[C@H](C)[C@@H](O)[C@H](N)[C@@H]3O)/C=C/C=C/C=C/C=C/C=C/C=C/C=C/[C@H](C)[C@H]1O)O2` (some centres unmarked) [Compound 125] are 8 mg/kg and 1 µg/mL (≈ 0.921 µM).
For `CC1[C@H](C)OC(=O)C[C@H](O)C[C@H](O)CC[C@@H](O)[C@H](O)C[C@H](O)C[C@]2(O)C[C@H](O)C(C(=O)NCC(O)C(O)C(O)C(O)CO)C(C[C@@H](OC3O[C@H](C)[C@@H](O)[C@H](N)[C@@H]3O)/C=C/C=C/C=C/C=C/C=C/C=C/C=C/[C@H](C)[C@H]1O)O2` (some centres unmarked) [Compound 126], the MIC with C. albicans stood at 3 µg/mL (≈ 2.76 µM).
For the molecule `CC1[C@H](C)OC(=O)C[C@H](O)C[C@H](O)CC[C@@H](O)[C@H](O)C[C@H](O)C[C@]2(O)C[C@H](O)C(C(=O)N3CCOCC3)C(C[C@@H](OC3O[C@H](C)[C@@H](O)[C@H](NC[C@@]4(O)OC[C@@H](O)[C@@H](O)[C@@H]4O)[C@@H]3O)/C=C/C=C/C=C/C=C/C=C/C=C/C=C/[C@H](C)[C@H]1O)O2` (some centres unmarked) [Compound 131], the NLD acute mice in data set [1] is reported as 5 mg/kg. The MIC in the data set with C. albicans worked out at 4 µg/mL (≈ 3.46 µM).
In the same order, the values of `CC1[C@H](C)OC(=O)C[C@H](O)C[C@H](O)CC[C@@H](O)[C@H](O)C[C@H](O)C[C@]2(O)C[C@H](O)C(C(=O)N3CCOCC3)C(C[C@@H](OC3O[C@H](C)[C@@H](O)[C@H](NC[C@@]4(O)OC[C@@H](O)[C@H](O)[C@@H]4O)[C@@H]3O)/C=C/C=C/C=C/C=C/C=C/C=C/C=C/[C@H](C)[C@H]1O)O2` (some centres unmarked) [Compound 137] are 5 mg/kg and 2 µg/mL (≈ 1.73 µM).
For the molecule `CC1[C@H](C)OC(=O)C[C@H](O)C[C@H](O)CC[C@@H](O)[C@H](O)C[C@H](O)C[C@]2(O)C[C@H](O)C(C(=O)N3CCN(C)CC3)C(C[C@@H](OC3O[C@H](C)[C@@H](O)[C@H](NC[C@@]4(O)OC[C@@H](O)[C@@H](OC5O[C@H](CO)[C@H](O)[C@H](O)[C@H]5O)[C@@H]4O)[C@@H]3O)/C=C/C=C/C=C/C=C/C=C/C=C/C=C/[C@H](C)[C@H]1O)O2` (some centres unmarked) [Compound 146], in data set [1], the NLD acute mice is listed as <7.5 mg/kg. For the same molecule, the MIC in the data set on C. albicans came to 2 µg/mL (≈ 1.5 µM).
Consider `CC1[C@H](C)OC(=O)C[C@H](O)C[C@H](O)CC[C@@H](O)[C@H](O)C[C@H](O)C[C@]2(O)C[C@H](O)C(C(=O)N3CCN(CCO)CC3)C(C[C@@H](OC3O[C@H](C)[C@@H](O)[C@H](NC[C@@]4(O)OC[C@@H](O)[C@@H](OC5O[C@H](CO)[C@H](O)[C@H](O)[C@H]5O)[C@@H]4O)[C@@H]3O)/C=C/C=C/C=C/C=C/C=C/C=C/C=C/[C@H](C)[C@H]1O)O2` (some centres unmarked) [Compound 147], for which, in data set [1], the NLD acute mice is on record as <7.5 mg/kg. Moreover, the MIC in the data set with C. albicans amounted to 2 µg/mL (≈ 1.47 µM).
